{"source": "patent US20170349593A1", "about": "“BTK INHIBITORS” (MERCK SHARP & DOHME CORP., priority 2014, published 2017)", "key": {"[1]": {"system": "adenosine uptake into HeLa cells", "assay": "[3H]Adenosine uptake assay", "assay_type": "cell-based", "conditions": "Homo sapiens; accumulation of [3H]adenosine into HeLa cells; concentration range 10 μM to 0.032 nM; read-out: ADU inhibition IC50", "outline": "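HeLa cells (25 000/well), plated overnight, were preincubated 30 minutes at ambient temperature with compound in HBSS + 5% FBS. Ten-point titrations ran from 10 μM to 0.032 nM final. [3H]adenosine was added from a 500 nM solution for 60 minutes, and uptake was measured by scintillation proximity counting; IC50 came from a 4-parameter fit.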"}, "[2]": {"target": "T1, BTK enzyme (recombinant full-length BTK, hBTK) (Homo sapiens, UniProt Q06187)", "T1 construct": "recombinant protein from baculovirus-transfected S 19 cells: full-length BTK, 6 HIS-tag cleaved; 6 HIS-tag (cleaved yes); made in house", "T1 sequence (Q06187 whole entry)": "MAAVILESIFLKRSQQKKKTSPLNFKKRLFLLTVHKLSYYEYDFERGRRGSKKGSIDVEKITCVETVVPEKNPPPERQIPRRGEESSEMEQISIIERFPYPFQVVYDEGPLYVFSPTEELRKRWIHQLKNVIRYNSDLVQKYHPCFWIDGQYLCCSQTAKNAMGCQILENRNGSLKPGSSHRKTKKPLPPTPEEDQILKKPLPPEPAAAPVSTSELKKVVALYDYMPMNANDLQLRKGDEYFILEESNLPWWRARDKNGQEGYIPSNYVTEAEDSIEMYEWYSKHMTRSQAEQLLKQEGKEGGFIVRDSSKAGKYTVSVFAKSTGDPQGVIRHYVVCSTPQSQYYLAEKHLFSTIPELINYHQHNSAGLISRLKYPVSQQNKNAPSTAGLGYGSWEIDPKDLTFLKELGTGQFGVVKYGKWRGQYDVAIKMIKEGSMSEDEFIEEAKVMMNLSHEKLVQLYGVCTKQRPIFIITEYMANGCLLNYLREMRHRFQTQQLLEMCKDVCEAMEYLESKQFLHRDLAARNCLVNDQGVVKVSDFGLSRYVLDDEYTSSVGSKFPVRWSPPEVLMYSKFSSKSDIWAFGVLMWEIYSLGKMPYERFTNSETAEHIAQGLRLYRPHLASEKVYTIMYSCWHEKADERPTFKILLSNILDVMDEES", "assay": "Btk enzyme activity assay (LANCE TR-FRET)", "assay_type": "biochemical", "conditions": "50 pM hBTK, 25 μM ATP, 60 minute compound and enzyme incubation, concentration range 1 μM to 0.017 nM, read-out: BTK binding IC50"}}, "data": [{"compound": "CCc1cnc(N)c2c(-c3ccc(C(=O)Nc4cc(C(F)(F)F)ccn4)cc3F)nc([C@H]3CN(C(=O)C4CC4)[C@@H](C)CO3)n12", "note": "[Example 110, 4-{8-amino-3-[(2R,5S)-4-(cyclopropylcarbonyl)-5-methylmorpholin-2-yl]-5-ethylimidazo[1,5-a]pyrazin-1-yl}-3-fluoro-N-[4-(trifluoromethyl)pyridin-2-yl]benzamide]", "values": [{"measurement": "IC50", "setting": "[1]", "value": 533, "unit": "nM"}, {"measurement": "IC50", "setting": "[2]", "value": 0.674, "unit": "nM"}]}, {"compound": "CCOc1cc(C(=O)Nc2cc(C(F)(F)F)ccn2)ccc1-c1nc([C@@H]2CC[C@H](C)N(C(=O)[C@@H](C)O)C2)n2c(Cl)cnc(N)c12", "note": "[Example 111, 4-(8-amino-5-chloro-3-{(3R,6S)-1-[(2R)-2-hydroxypropanoyl]-6-methylpiperidin-3-yl}imidazo[1,5-a]pyrazin-1-yl)-3-ethoxy-N-[4-(trifluoromethyl)pyridin-2-yl]benzamide]", "values": [{"measurement": "IC50", "setting": "[1]", "value": 982, "unit": "nM"}, {"measurement": "IC50", "setting": "[2]", "value": 0.274, "unit": "nM"}]}, {"compound": "Nc1c(N[C@H]2C[C@H](c3nc(-c4ccc(C(=O)Nc5cc(C(F)(F)F)ccn5)cc4)c4c(N)nccn43)C2)c(=O)c1=O", "note": "[Example 112, 4-(8-amino-3-{trans-3-[(2-amino-3,4-dioxocyclobut-1-en-1-yl)amino]cyclobutyl}imidazo[1,5-a]pyrazin-1-yl)-N-[4-(trifluoromethyl)pyridin-2-yl]benzamide]", "values": [{"measurement": "IC50", "setting": "[1]", "value": 2270, "unit": "nM"}, {"measurement": "IC50", "setting": "[2]", "value": 0.254, "unit": "nM"}]}, {"compound": "CNc1c(N[C@H]2C[C@H](c3nc(-c4ccc(C(=O)Nc5cc(C(F)(F)F)ccn5)cc4)c4c(N)nccn43)C2)c(=O)c1=O", "note": "[Example 113, 4-[8-amino-3-(trans-3-{[2-(methylamino)-3,4-dioxocyclobut-1-en-1-yl]amino}cyclobutyl)imidazo[1,5-a]pyrazin-1-yl]-N-[4-(trifluoromethyl)pyridin-2-yl]benzamide]", "values": [{"measurement": "IC50", "setting": "[1]", "value": 2940, "unit": "nM"}, {"measurement": "IC50", "setting": "[2]", "value": 0.166, "unit": "nM"}]}, {"compound": "Nc1nccn2c1c(-c1ccc(C(=O)Nc3cc(C(F)(F)F)ccn3)cc1)nc2[C@H]1C[C@H](Nc2c(NC3CC3)c(=O)c2=O)C1", "note": "[Example 114, 4-[8-amino-3-(trans-3-{[2-(cyclopropylamino)-3,4-dioxocyclobut-1-en-1-yl]amino}cyclobutyl)imidazo[1,5-a]pyrazin-1-yl]-N-[4-(trifluoromethyl)pyridin-2-yl]benzamide]", "values": [{"measurement": "IC50", "setting": "[1]", "value": 925, "unit": "nM"}, {"measurement": "IC50", "setting": "[2]", "value": 0.327, "unit": "nM"}]}]}
